# According to ChEMBL document CHEMBL4422610, “HDAC as onco target: Reviewing the synthetic approaches with SAR study of their inhibitors” (Eur J Med Chem, 2018):
# Legend:
# [1] = molecular target: T1, Histone deacetylase 1 (Homo sapiens, UniProt Q13547); test: Inhibition of recombinant human GST-tagged HDAC1 expressed in baculovirus infected Sf9 insect cells Fluor-de-lys as substrate measured after 2 hrs by fluorescence assay
# [2] = molecular target: Histone deacetylase; assay type: cell-based, Homo sapiens; conditions: hela
# [3] = molecular target: Histone deacetylase (HDAC1 and HDAC2) (Homo sapiens, UniProt Q13547+Q92769); assay type: cell-based; conditions: hela
# [4] = molecular target: Histone deacetylase 3 (Homo sapiens, UniProt O15379); test: Inhibition of HDAC3 (unknown origin)
# Histone deacetylase 3, sequence (O15379 whole entry): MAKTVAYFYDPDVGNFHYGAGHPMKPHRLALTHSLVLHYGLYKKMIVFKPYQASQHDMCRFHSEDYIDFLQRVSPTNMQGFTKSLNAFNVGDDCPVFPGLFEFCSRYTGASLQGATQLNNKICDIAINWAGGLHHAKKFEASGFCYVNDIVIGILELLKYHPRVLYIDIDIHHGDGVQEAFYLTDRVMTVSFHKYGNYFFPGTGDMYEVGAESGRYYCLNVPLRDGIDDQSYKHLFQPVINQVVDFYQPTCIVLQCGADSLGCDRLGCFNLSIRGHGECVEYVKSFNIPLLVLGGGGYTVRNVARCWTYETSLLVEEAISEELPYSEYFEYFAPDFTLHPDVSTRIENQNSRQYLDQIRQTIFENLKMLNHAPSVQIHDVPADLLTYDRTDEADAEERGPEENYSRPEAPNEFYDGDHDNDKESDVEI
# [5] = molecular target: T2, Protein deacetylase HDAC6 (Homo sapiens, UniProt Q9UBN7); test: Inhibition of HDAC6 (unknown origin)
# T2 sequence (Q9UBN7 whole entry): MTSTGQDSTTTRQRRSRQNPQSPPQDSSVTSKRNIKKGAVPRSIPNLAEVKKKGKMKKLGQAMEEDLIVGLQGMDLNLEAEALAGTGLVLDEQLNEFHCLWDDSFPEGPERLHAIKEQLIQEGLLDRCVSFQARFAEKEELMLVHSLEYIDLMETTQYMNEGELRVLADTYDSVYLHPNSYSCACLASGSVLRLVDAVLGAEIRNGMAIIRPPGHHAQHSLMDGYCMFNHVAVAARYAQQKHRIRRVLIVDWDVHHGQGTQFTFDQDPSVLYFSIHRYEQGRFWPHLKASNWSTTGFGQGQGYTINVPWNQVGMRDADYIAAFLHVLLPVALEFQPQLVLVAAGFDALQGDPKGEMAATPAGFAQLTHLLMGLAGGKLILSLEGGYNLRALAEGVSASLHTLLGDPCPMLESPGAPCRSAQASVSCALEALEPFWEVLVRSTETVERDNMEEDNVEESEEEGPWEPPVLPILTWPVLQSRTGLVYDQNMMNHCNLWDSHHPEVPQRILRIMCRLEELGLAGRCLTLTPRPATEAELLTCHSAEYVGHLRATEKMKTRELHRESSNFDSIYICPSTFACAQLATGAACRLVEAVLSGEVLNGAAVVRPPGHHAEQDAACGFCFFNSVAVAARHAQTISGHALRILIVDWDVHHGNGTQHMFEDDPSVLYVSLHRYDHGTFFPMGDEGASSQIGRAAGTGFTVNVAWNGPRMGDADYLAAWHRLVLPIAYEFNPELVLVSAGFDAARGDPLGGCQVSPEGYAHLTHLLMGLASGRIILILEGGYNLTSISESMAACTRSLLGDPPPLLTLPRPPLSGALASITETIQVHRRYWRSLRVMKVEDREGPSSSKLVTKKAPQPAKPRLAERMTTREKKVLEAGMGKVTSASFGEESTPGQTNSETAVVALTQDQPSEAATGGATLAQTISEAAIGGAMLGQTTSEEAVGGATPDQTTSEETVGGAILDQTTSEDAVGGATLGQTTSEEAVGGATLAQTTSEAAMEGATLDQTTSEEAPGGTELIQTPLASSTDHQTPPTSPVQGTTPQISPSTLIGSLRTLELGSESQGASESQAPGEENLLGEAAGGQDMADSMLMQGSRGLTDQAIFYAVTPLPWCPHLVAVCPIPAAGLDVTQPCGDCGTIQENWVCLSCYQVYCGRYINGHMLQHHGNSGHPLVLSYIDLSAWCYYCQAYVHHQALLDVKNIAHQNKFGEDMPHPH
# [6] = molecular target: Histone deacetylase (Homo sapiens) (UniProt Q13547+O15379+Q9UBN7+Q92769+Q9UQL6+Q8WUI4+Q9BY41+Q96DB2+P56524+Q9UKV0+Q969S8); test: Inhibition of HDAC in human K562 cells assessed as increase in histone acetylation levels at 500 nM after 3 hrs by FACS analysis relative to SAHA; assay type: cell-based
# [7] = tested on: HCT-116; test: cells; assay type: functional, cell-based; conditions: Homo sapiens, HCT-116, 72 h
# [8] = tested on: K562; test: cells; assay type: functional, cell-based; conditions: Homo sapiens, K562, 72 h
# [9] = tested on: A549; test: cells; assay type: functional, cell-based; conditions: Homo sapiens, A549, 72 h
# [10] = tested on: Zea mays; test: Inhibition of maize HD2 at 5 uM using [3H]acetate-labelled histone as substrate by liquid scintillation counting method relative to control
# [11] = molecular target: T1, Histone deacetylase 1; test: Inhibition of recombinant human His-tagged HDAC1 (482 residues) expressed in baculovirus infected insect cells using Boc Lys(Ac)-AMC as substrate preincubated for 5 mins followed by substrate addition and measured after 30 mins by fluorescence assay
# [12] = molecular target: T2, Protein deacetylase HDAC6; test: Inhibition of recombinant human His-tagged HDAC6 expressed in baculovirus infected insect cells using Boc Lys(Ac)-AMC as substrate preincubated for 5 mins followed by substrate addition and measured after 30 mins by fluorescence assay
# [13] = molecular target: T3, Histone deacetylase 4 (Homo sapiens, UniProt P56524); test: Inhibition of HDAC4 (unknown origin)
# T3 sequence (P56524 whole entry): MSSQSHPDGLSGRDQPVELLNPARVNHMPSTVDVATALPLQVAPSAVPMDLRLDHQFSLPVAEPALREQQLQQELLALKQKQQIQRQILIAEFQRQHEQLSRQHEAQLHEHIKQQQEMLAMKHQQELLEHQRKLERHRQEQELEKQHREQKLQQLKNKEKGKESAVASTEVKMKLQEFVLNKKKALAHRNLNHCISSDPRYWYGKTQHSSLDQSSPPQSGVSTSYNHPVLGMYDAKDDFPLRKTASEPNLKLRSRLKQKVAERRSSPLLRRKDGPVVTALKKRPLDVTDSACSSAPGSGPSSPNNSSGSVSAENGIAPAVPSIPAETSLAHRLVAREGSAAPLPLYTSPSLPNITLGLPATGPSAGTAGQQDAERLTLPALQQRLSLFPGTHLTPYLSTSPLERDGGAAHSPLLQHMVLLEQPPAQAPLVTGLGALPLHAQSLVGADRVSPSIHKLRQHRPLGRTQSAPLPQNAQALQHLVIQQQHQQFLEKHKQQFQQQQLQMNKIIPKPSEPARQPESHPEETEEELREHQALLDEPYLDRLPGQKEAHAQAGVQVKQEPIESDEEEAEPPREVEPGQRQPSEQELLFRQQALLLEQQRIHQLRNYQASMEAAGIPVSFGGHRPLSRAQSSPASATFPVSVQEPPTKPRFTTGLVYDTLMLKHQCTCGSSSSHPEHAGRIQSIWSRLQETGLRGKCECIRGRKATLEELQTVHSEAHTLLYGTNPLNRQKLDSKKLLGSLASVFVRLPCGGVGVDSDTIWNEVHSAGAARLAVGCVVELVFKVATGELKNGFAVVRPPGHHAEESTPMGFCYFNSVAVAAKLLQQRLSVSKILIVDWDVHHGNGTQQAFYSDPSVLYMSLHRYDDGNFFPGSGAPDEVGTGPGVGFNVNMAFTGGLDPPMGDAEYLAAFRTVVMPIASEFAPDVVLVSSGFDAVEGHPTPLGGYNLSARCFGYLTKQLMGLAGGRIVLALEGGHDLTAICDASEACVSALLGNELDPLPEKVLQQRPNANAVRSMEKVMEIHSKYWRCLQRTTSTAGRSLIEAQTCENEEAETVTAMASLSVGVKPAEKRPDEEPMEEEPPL
# [14] = molecular target: T1, Histone deacetylase 1; test: Inhibition of HDAC1 (unknown origin)
# [15] = molecular target: T4, Protein deacetylase HDAC6 (Mus musculus, UniProt Q9Z2V5); test: Inhibition of recombinant mouse HDAC6 expressed in HEK293T cells using Ac-KGLGK(Ac)-MCA as substrate measured after 30 mins by fluorescence assay
# T4 sequence (Q9Z2V5 whole entry): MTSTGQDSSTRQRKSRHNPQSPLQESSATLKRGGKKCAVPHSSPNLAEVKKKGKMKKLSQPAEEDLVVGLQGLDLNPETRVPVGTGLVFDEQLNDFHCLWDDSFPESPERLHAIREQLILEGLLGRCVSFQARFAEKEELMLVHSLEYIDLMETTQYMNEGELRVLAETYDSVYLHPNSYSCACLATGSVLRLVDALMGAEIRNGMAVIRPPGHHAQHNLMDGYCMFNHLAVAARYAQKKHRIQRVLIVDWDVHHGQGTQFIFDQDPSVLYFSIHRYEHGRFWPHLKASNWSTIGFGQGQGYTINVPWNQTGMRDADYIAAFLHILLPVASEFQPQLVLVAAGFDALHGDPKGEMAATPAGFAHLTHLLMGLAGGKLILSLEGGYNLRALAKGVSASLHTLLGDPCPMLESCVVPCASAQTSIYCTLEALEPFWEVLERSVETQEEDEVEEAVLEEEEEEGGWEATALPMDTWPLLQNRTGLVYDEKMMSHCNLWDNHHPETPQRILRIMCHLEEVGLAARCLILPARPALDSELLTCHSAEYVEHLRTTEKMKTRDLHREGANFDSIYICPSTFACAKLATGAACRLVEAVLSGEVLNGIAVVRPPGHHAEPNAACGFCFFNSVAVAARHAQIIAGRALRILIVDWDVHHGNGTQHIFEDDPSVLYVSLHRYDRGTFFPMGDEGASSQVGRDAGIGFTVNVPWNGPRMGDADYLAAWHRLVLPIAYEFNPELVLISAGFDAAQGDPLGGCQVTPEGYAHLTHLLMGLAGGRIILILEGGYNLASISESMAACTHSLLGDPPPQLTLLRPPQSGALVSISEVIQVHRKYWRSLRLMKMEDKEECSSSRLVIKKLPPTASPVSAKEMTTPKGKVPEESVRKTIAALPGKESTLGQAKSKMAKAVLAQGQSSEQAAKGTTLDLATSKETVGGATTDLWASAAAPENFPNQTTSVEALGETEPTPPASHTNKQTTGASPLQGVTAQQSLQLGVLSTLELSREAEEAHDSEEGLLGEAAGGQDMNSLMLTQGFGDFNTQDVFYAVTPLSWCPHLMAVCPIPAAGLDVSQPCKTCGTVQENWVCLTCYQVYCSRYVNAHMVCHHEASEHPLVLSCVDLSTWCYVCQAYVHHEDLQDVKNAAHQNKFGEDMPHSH
# [16] = molecular target: T1, Histone deacetylase 1; test: Inhibition of recombinant human HDAC1 expressed in HEK293T cells using Ac-KGLGK(Ac)-MCA as substrate measured after 30 mins by fluorescence assay
# [17] = molecular target: T3, Histone deacetylase 4; test: Inhibition of recombinant human HDAC4 expressed in HEK293T cells using Ac-KGLGK(Ac)-MCA as substrate measured after 30 mins by fluorescence assay
# [18] = molecular target: T2, Protein deacetylase HDAC6; test: Inhibition of recombinant full-length human HDAC6 expressed in baculovirus expression system using FAM-RHKK(Ac)-H2 as substrate measured by electrophoretic mobility shift assay
# T1 sequence (Q13547 whole entry): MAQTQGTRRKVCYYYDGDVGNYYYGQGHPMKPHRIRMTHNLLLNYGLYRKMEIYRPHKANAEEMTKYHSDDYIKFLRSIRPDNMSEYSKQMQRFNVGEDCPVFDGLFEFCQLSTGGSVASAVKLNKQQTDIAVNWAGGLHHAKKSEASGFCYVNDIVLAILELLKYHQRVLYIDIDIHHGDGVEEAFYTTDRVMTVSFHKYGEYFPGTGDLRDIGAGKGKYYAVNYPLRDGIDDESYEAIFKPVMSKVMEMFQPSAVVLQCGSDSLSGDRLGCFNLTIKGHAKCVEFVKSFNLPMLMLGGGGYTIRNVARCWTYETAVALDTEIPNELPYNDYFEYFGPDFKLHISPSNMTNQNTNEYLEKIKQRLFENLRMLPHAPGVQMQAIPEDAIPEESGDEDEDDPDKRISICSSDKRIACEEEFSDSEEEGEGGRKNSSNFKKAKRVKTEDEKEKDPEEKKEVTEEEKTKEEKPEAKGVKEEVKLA
structure (smiles),measurement,setting,value
CCC(CC)CN(CC)Cc1c(C)nc2cc(/C=C/C(=O)NO)ccn12,IC50,[1],10 nM
CCN(CC)CCN(Cc1ccc(C(=O)NO)cc1)C(=O)c1cc2c([nH]c3ccccc32)c(-c2ccc(OC)cc2)n1,IC50,[2],120 nM
COc1cc(/C=C/C(=O)NO)ccc1OCCCCN(C)C(=O)c1ccccc1O,IC50,[3],220 nM
same,IC50,[4],260 nM
same,IC50,[5],380 nM
O=C(CCCCCCn1cc(-c2ccc(Oc3ccccc3)cc2)nn1)NO,histone acetylation relative to SAHA,[6],53%
same,IC50,[7],3550 nM
same,IC50,[8],3300 nM
same,IC50,[9],4340 nM
Cn1cc(C(=O)c2ccccc2)cc1/C=C/C(=O)NN,inhibition,[10],0.2%
CCCCc1nc2cc(/C=C/C(=O)NO)ccn2c1CN(CC)CCCC,IC50,[1],60 nM
CCCCNCc1c(CCCC)nc2cc(/C=C/C(=O)NO)ccn12,IC50,[1],20 nM
CC(C)CCc1c(OCCCOc2cccc(/C=C/C(=O)NO)c2)ccc2c1OC(=O)CC2,IC50,[11],64.7 nM
same,IC50,[12],12.1 nM
COc1cc(/C=C/C(=O)NO)ccc1OCCN(C)C(=O)c1ccccc1O,IC50,[3],240 nM
same,IC50,[4],380 nM
same,IC50,[5],430 nM
CC(C)CCc1c(OCCOc2cccc(/C=C/C(=O)NO)c2)ccc2c1OC(=O)CC2,IC50,[11],66.8 nM
same,IC50,[12],6.31 nM
COc1ccc2c(c1)[nH]c1c(C)nccc12 [HARMINE],IC50,[2],> 10000 nM
CN(Cc1c(C(C)(C)C)nc2cc(/C=C/C(=O)NO)ccn12)CC(C)(C)C,IC50,[1],780 nM
CCCN(Cc1ccc(C(=O)NO)cc1)C(=O)c1cc2c([nH]c3ccccc32)c(-c2ccc(OC)cc2)n1,IC50,[2],260 nM
Cn1cc(C(=O)c2ccc(Cl)cc2)cc1/C=C/C(=O)NO,inhibition,[10],87%
Cn1cc(C(=O)c2ccccc2)cc1/C=C/C(=O)NO,inhibition,[10],86%
O=C(NC(CCCCCSSCCO)C(=O)Nc1cccc2cccnc12)OCc1ccccc1 (centres undefined),IC50,[5],3.2 nM
same,IC50,[13],2 nM
same,IC50,[14],4.9 nM
Cn1cc(C(=O)c2ccccc2)cc1CCC(=O)NO,inhibition,[10],45%
O=C(CCCCCCn1cc(-c2ccccc2)nn1)NO,histone acetylation relative to SAHA,[6],108%
same,IC50,[7],1390 nM
same,IC50,[8],1210 nM
same,IC50,[9],1980 nM
O=C(CCCCC[C@@H]1NC(=O)[C@H]2CCCN2C(=O)[C@@H]2CCCCCCCCCCC[C@@H](NC1=O)C(=O)N2)NO,IC50,[15],280 nM
O=C1N[C@@H]2CCCCCCCCCCC[C@H](NC2=O)C(=O)N2CCC[C@@H]2C(=O)N[C@H]1CCCCCB(O)O,IC50,[16],12000 nM
same,IC50,[17],9400 nM
same,IC50,[15],> 100000 nM
CC(C)CCc1c(OCCCCOc2ccc(/C=C/C(=O)NO)cc2)ccc2c1OC(=O)CC2,IC50,[11],204 nM
same,IC50,[12],82.6 nM
COc1cc(/C=C/C(=O)NO)ccc1OCCCCNC(=O)c1ccccc1O,IC50,[3],220 nM
same,IC50,[4],410 nM
same,IC50,[5],360 nM
COc1ccc(-c2nc(C(=O)N(CCN(C)C)Cc3ccc(C(=O)NO)cc3)cc3c2[nH]c2ccccc23)cc1,IC50,[2],92 nM
CC(C)CCc1c(OCCOc2ccc(/C=C/C(=O)NO)cc2)ccc2c1OC(=O)CC2,IC50,[11],83.2 nM
same,IC50,[12],55.6 nM
COc1cc(/C=C/C(=O)NO)ccc1OCCCN(C)C(=O)c1ccccc1O,IC50,[3],180 nM
same,IC50,[4],290 nM
same,IC50,[5],350 nM
O=C(NO)c1ccc2c(c1)CC1(CC2)CCN(Cc2ccc(OC(F)(F)F)cc2)C1=O (centres undefined),IC50,[18],≤ 100 nM
O=C(CCCCCn1cc(-c2ccccc2)nn1)NO,histone acetylation relative to SAHA,[6],48%
same,IC50,[7],9370 nM
same,IC50,[8],8350 nM
same,IC50,[9],12500 nM
COc1ccc(-c2cn(CCCCCCC(=O)NO)nn2)cc1,histone acetylation relative to SAHA,[6],85%
same,IC50,[7],1780 nM
same,IC50,[8],1530 nM
same,IC50,[9],2840 nM
COCC(=O)CCCCC[C@@H]1NC(=O)[C@H]2CCCN2C(=O)[C@@H]2CCCCCCCCCCC[C@@H](NC1=O)C(=O)N2,IC50,[16],27 nM
same,IC50,[17],26 nM
same,IC50,[15],> 100000 nM
COc1cc(/C=C/C(=O)NO)ccc1OCCCNC(=O)c1ccccc1O,IC50,[3],370 nM
same,IC50,[4],680 nM
same,IC50,[5],550 nM
O=C(NO)c1ccc2c(c1)CC1(CC2)CCN(Cc2ccccc2OC(F)(F)F)C1=O (centres undefined),IC50,[18],100 to 500 nM
Cc1ccc(C(=O)c2cc(/C=C/C(=O)NO)n(C)c2)cc1,inhibition,[10],86.4%
